Among the data in US11142515B2, “Pyrazolyl-ureas as kinase inhibitors” (RESPIVERT LIMITED, priority 2014, dated 2021) are IC50 values, retold here.

Molecules are shown by their SMILES. Where only a bound is given, the exact number is not on record here.

In test [1] the target is T1, p38 MAPKα isoform (MAPK14) (Homo sapiens, UniProt Q16539).
T1 construct: purchased Life Technologies
Kind of test: p38 MAPKα enzyme inhibition (Z-LYTE FRET). In kind it is biochemical. The note with it: Table 2B, unit inferred; read-out: p38 MAPKα (Enzyme Profile). In short, it runs like this:
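Activity was measured indirectly as phosphorylation of a MAPKAP-K2-derived FRET peptide. Enzyme (added at 40 ng/mL) was preincubated 2 h at RT with compound (added solutions 40–0.0012 μg/mL).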

The target of another test is T2, p38MAPKγ (MAPK12) (Homo sapiens, UniProt P53778).
T2 construct: purchased Life Technologies
T2 sequence (P53778 1-367): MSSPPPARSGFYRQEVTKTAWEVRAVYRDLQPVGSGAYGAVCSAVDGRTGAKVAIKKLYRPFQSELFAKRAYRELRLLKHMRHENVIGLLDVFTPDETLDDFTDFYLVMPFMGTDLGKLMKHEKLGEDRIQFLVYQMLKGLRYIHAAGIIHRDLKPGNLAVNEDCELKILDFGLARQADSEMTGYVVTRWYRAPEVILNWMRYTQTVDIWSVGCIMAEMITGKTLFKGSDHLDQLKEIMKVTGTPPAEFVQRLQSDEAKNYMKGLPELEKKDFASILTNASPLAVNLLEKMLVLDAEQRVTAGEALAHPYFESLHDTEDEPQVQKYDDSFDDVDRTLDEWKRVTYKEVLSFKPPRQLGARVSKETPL
Kind of test: p38 MAPKγ enzyme inhibition (Z-LYTE FRET). The note with it: Table 2B, unit inferred; read-out: p38 MAPKγ (Enzyme Profile). Format: biochemical. In short, it runs like this: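 Enzyme (added at 800 ng/mL) was preincubated 2 h at RT with compound (solutions of 40 to 0.0012 μg/mL), then FRET peptide (8 μM) and ATP (400 μM), both as added, were reacted 1 h at RT. Protease development followed for 1 h; phosphorylation was read as the coumarin/fluorescein emission ratio.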

T1 sequence (Q16539 whole entry, canonical isoform): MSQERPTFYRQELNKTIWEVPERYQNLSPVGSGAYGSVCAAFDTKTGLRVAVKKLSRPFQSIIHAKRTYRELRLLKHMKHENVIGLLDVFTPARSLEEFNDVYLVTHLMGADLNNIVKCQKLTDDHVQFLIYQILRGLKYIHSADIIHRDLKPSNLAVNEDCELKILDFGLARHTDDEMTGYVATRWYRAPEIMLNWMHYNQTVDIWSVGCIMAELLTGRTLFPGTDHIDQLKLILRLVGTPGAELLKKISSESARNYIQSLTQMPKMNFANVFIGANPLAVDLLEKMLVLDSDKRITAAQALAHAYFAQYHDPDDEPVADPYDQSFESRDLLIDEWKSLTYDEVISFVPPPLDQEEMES

For the compound `COc1ccc(-n2nc(C(C)(C)C)cc2NC(=O)Nc2ccc(OCc3ccnc(Nc4cnc(C(=O)N5CCCC5)cn4)c3)c3ccccc23)cc1F` [Example 228, 1-(3-(tert-butyl)-1-(3-fluoro-4-methoxyphenyl)-1H-pyrazol-5-yl)-3-(4-((2-((5-(pyrrolidine-1-carbonyl)pyrazin-2-yl)amino)pyridin-4-yl)methoxy)naphthalen-1-yl)urea], the IC50 in test [1] is 35 nM; on p38MAPKγ (MAPK12), over 13700 nM.

For the compound `CCc1ccc(-n2nc(C(C)(C)C)cc2NC(=O)Nc2ccc(OCc3ccnc(Nc4cnc(C(=O)N5CCCC5)cn4)c3)c3ccccc23)cc1` [Example 229, 1-(3-(tert-butyl)-1-(4-ethyl-phenyl)-1H-pyrazol-5-yl)-3-(4-((2-((5-(pyrrolidine-1-carbonyl)pyrazin-2-yl)amino)pyridin-4-yl)methoxy)naphthalen-1-yl)urea], the IC50 in test [1] was 27 nM; at p38MAPKγ (MAPK12), over 14100 nM.

In the case of `CCc1cccc(-n2nc(C(C)(C)C)cc2NC(=O)Nc2ccc(OCc3ccnc(Nc4cnc(C(=O)N5CCCC5)cn4)c3)c3ccccc23)c1` [Example 230, 1-(3-(tert-butyl)-1-(3-ethyl-phenyl)-1H-pyrazol-5-yl)-3-(4-((2-((5-(pyrrolidine-1-carbonyl)pyrazin-2-yl)amino)pyridin-4-yl)methoxy)naphthalen-1-yl)urea], the IC50 in test [1] is 43 nM; at p38MAPKγ (MAPK12), over 14100 nM.

On to `Cc1cccc(-n2nc(C(C)(C)C)cc2NC(=O)Nc2ccc(OCc3ccnc(Nc4cnc(C(=O)NCCCO)cn4)c3)c3ccccc23)c1` [Example 231, 5-((4-(((4-(3-(3-(tert-butyl)-1-(m-tolyl)-1H-pyrazol-5-yl)ureido)naphthalen-1-yl)oxy)methyl)pyridin-2-yl)amino)-N-(3-hydroxypropyl) pyrazine-2-carboxamide], for which the IC50 was determined as 15 nM in test [1] and 95 nM at p38MAPKγ (MAPK12).

Take `Cc1ccc(-n2nc(C(C)(C)C)cc2NC(=O)Nc2ccc(OCc3ccnc(Nc4cnc(C(=O)N5CCC[C@H](O)C5)cn4)c3)c3ccccc23)cc1` [Example 232, (S)-1-(3-(tert-butyl)-1-(p-tolyl)-1H-pyrazol-5-yl)-3-(4-((2-((5-(3-hydroxypiperidine-1-carbonyl)pyrazin-2-yl)amino)pyridin-4-yl)methoxy)naphthalen-1-yl)urea]: the IC50 was determined as 18 nM in test [1] and 117 nM on p38MAPKγ (MAPK12).

In the case of `Cc1ccc(-n2nc(C(C)(C)C)cc2NC(=O)Nc2ccc(OCc3ccnc(Nc4cnc(C(=O)N5CCC[C@@H](O)C5)cn4)c3)c3ccccc23)cc1` [Example 233, (R)-1-(3-(tert-butyl)-1-(p-tolyl)-1H-pyrazol-5-yl)-3-(4-((2-((5-(3-hydroxypiperidine-1-carbonyl)pyrazin-2-yl)amino)pyridin-4-yl)methoxy)naphthalen-1-yl)urea], the IC50 in test [1] is 9.4 nM; at p38MAPKγ (MAPK12), 98 nM.

Take `CCc1cccc(-n2nc(C(C)(C)C)cc2NC(=O)Nc2ccc(OCc3ccnc(Nc4cncc(CC)n4)c3)c3ccccc23)c1` [Example 234, 1-(3-(tert-butyl)-1-(3-ethyl-phenyl)-1H-pyrazol-5-yl)-3-(4-((2-((6-ethylpyrazin-2-yl)amino)pyridin-4-yl)methoxy)naphthalen-1-yl)urea]: the IC50 was 64 nM in test [1] and over 15600 nM at p38MAPKγ (MAPK12).

On to `Cc1ccc(-n2nc(C(C)(C)C)cc2NC(=O)Nc2ccc(OCc3ccnc(Nc4cnc(C(=O)N5CCCC5)cn4)c3)c3ccccc23)cc1F` [Example 235, 1-(3-(tert-butyl)-1-(3-fluoro-4-methylphenyl)-1H-pyrazol-5-yl)-3-(4-((2-((5-(pyrrolidine-1-carbonyl)pyrazin-2-yl)amino)pyridin-4-yl)methoxy)naphthalen-1-yl)urea], for which the IC50 in test [1] is 65 nM; on p38MAPKγ (MAPK12), over 14000 nM.

Consider `Cc1cc(F)cc(-n2nc(C(C)(C)C)cc2NC(=O)Nc2ccc(OCc3ccnc(Nc4cnc(C(=O)N5CCCC5)cn4)c3)c3ccccc23)c1` [Example 236, 1-(3-(tert-butyl)-1-(3-fluoro-5-methylphenyl)-1H-pyrazol-5-yl)-3-(4-((2-((5-(pyrrolidine-1-carbonyl)pyrazin-2-yl)amino)pyridin-4-yl)methoxy)naphthalen-1-yl)urea], for which the IC50 in test [1] is 42 nM; on p38MAPKγ (MAPK12) it was over 14000 nM.

Turning to `CC(C)(C)c1cc(NC(=O)Nc2ccc(OCc3ccnc(Nc4cnccn4)c3)c3ccccc23)n(-c2cccc(CCO)c2)n1` [Example 237, 1-(3-(tert-butyl)-1-(3-(2-hydroxyethyl)phenyl)-1H-pyrazol-5-yl)-3-(4-((2-(pyrazin-2-ylamino)pyridin-4-yl)methoxy)naphthalen-1-yl)urea], the results for the IC50 (in test [1]; at p38MAPKγ (MAPK12)) were 8.4 nM and 29 nM, respectively.

As for `CO[C@H]1CCCN(C(=O)c2cnc(Nc3cc(COc4ccc(NC(=O)Nc5cc(C(C)(C)C)nn5-c5ccc(C)cc5)c5ccccc45)ccn3)cn2)C1` [Example 238, (S)-1-(3-(tert-butyl)-1-(p-tolyl)-1H-pyrazol-5-yl)-3-(4-((2-((5-(3-methoxypiperidine-1-carbonyl)pyrazin-2-yl)amino)pyridin-4-yl)methoxy)naphthalen-1-yl)urea], the IC50 in test [1] stood at 19 nM; at p38MAPKγ (MAPK12), 151 nM.

Consider `CO[C@@H]1CCCN(C(=O)c2cnc(Nc3cc(COc4ccc(NC(=O)Nc5cc(C(C)(C)C)nn5-c5ccc(C)cc5)c5ccccc45)ccn3)cn2)C1` [Example 239, (R)-1-(3-(tert-butyl)-1-(p-tolyl)-1H-pyrazol-5-yl)-3-(4-((2-((5-(3-methoxy-piperidine-1-carbonyl)pyrazin-2-yl)amino)pyridin-4-yl)methoxy)naphthalen-1-yl)urea], for which the IC50 in test [1] was determined as 14 nM; on p38MAPKγ (MAPK12), 130 nM.

`CC(=O)N1CCN(C(=O)c2cnc(Nc3cc(COc4ccc(NC(=O)Nc5cc(C(C)(C)C)nn5-c5ccc(C)cc5)c5ccccc45)ccn3)cn2)CC1` [Example 240, 1-(4-((2-((5-(4-acetyl-piperazine-1-carbonyl)pyrazin-2-yl)amino)pyridin-4-yl)methoxy)naphthalen-1-yl)-3-(3-(tert-butyl)-1-(p-tolyl)-1H-pyrazol-5-yl)urea]: the IC50 in test [1] is 12 nM; on p38MAPKγ (MAPK12), 80 nM.

As for `Cc1ccc(-n2nc(C(C)(C)C)cc2NC(=O)Nc2ccc(OCc3ccnc(Nc4cnc(C(=O)N5CCNC(=O)CC5)cn4)c3)c3ccccc23)cc1` [Example 241, 1-(3-(tert-butyl)-1-(p-tolyl)-1H-pyrazol-5-yl)-3-(4-((2-((5-(5-oxo-1,4-diazepane-1-carbonyl)pyrazin-2-yl)amino)pyridin-4-yl)methoxy)naphthalen-1-yl)urea], the IC50 in test [1] worked out at 3.4 nM; on p38MAPKγ (MAPK12), 48 nM.

For `Cc1ccc(-n2nc(C(C)(C)C)cc2NC(=O)Nc2ccc(OCc3ccnc(Nc4cnc(C(=O)N5CC[C@H](F)C5)cn4)c3)c3ccccc23)cc1` [Example 242, (S)-1-(3-(tert-butyl)-1-(p-tolyl)-1H-pyrazol-5-yl)-3-(4-((2-((5-(3-fluoropyrrolidine-1-carbonyl)pyrazin-2-yl)amino)pyridin-4-yl)methoxy)naphthalen-1-yl)urea], the IC50 in test [1] is 19 nM; on p38MAPKγ (MAPK12), over 14000 nM.

For `Cc1ccc(-n2nc(C(C)(C)C)cc2NC(=O)Nc2ccc(OCc3ccnc(Nc4cnc(C(=O)N5CCS(=O)(=O)CC5)cn4)c3)c3ccccc23)cc1` [Example 243, 1-(3-(tert-butyl)-1-(p-tolyl)-1H-pyrazol-5-yl)-3-(4-((2-((5-(1,1-dioxidothiomor-pholine-4-carbonyl)pyrazin-2-yl)amino)pyridin-4-yl)methoxy)naphthalen-1-yl) urea], the IC50 was found to be 8.5 nM in test [1] and 96 nM on p38MAPKγ (MAPK12).

For the compound `Cc1ccc(-n2nc(C(C)(C)C)cc2NC(=O)Nc2ccc(OCc3ccnc(Nc4cnc(C(=O)N5CCN(C)C(=O)C5)cn4)c3)c3ccccc23)cc1` [Example 244, 1-(3-(tert-butyl)-1-(p-tolyl)-1H-pyrazol-5-yl)-3-(4-((2-((5-(4-methyl-3-oxopipera-zine-1-carbonyl)pyrazin-2-yl)amino)pyridin-4-yl)methoxy)naphthalen-1-yl) urea], the IC50 turned out to be 3 nM in test [1] and 46 nM at p38MAPKγ (MAPK12).

`Cc1ccc(-n2nc(C(C)(C)C)cc2NC(=O)Nc2ccc(OCc3ccnc(Nc4cnc(C(=O)N5CC[C@@H](F)C5)cn4)c3)c3ccccc23)cc1` [Example 245, (R)-1-(3-(tert-butyl)-1-(p-tolyl)-1H-pyrazol-5-yl)-3-(4-((2-((5-(3-fluoropyrrolidine-1-carbonyl)pyrazin-2-yl)amino)pyridin-4-yl)methoxy)naphthalen-1-yl)urea]: the IC50 was found to be 18 nM in test [1] and 1700 nM at p38MAPKγ (MAPK12).

Consider `Cc1ccc(-n2nc(C(C)(C)C)cc2NC(=O)Nc2ccc(OCc3ccnc(Nc4cnc(C(=O)N5CCC(F)(F)CC5)cn4)c3)c3ccccc23)cc1` [Example 246, 1-(3-(tert-butyl)-1-(p-tolyl)-1H-pyrazol-5-yl)-3-(4-((2-((5-(4,4-difluoropiperidine-1-carbonyl)pyrazin-2-yl)amino)pyridin-4-yl)methoxy)naphthalen-1-yl)urea], for which the IC50 was 58 nM in test [1] and 3730 nM on p38MAPKγ (MAPK12).
